Reference: patent US20170240511A1 (MERCK SHARP & DOHME CORP., priority 2014, published 2017)

Molecular target: T1, Human HIF-PHD2 (Homo sapiens, UniProt Q9GZT9)
T1 construct: FLAG-tagged full length PHD2 expressed in and purified from baculovirus-infected Sf9 cells; FLAG; made in house; host or cells: baculovirus-infected Sf9 cells
Assay: HIF-PHD2 inhibition assay: time resolved fluorescence detection of HIF peptide hydroxylation
Assay type: biochemical
Conditions: FLAG-tagged full length PHD2; 0.2 μM 2-oxoglutarate, 0.5 μM HIF-1α peptide; 45 minutes at room temperature
Protocol: To each well of a 384-well plate, 1 μL of test compounds in DMSO (final concentration ranging from 0.3 nM to 10 μM) were added into 20 μl of assay buffer (50 mM Tris pH 7.4/0.01% Tween-20/0.1 mg/ml bovine serum albumin/10 μM ferrous sulfate/1 mM sodium ascorbate/20 μg/ml catalase) containing 0.15 μg/ml FLAG-tagged full length PHD2 expressed in and purified from baculovirus-infected Sf9 cells. After a 5 min preincubation at room temperature, the enzymatic reactions were initiated by the addition of 4 μL of substrates final concentrations of 0.2 μM 2-oxoglutarate and 0.5 μM HIF-la peptide biotinyl-[…] […] After incubation for 45 minutes at room temperature, the reactions were terminated by the addition of a 25 μL quench/detection mix to a final concentration of 1 mM ortho-phenanthroline, 0.1 mM EDTA, 0.5 nM anti-(His)6 LANCE reagent (Perkin-Elmer Life Sciences), 100 nM AF647-labeled streptavidin (Invitrogen), and 2 μg/ml (His)6-VHL complex {S. Tan Protein Expr. Purif. […] Inhibition of the catalytic activity of HIF-PHD1 and HIF-PHD3 can be determined similarly, except for HIF-PHD3, final concentrations of 4 μM 2-oxoglutarate is used during the reaction.

T1 sequence (Q9GZT9 whole entry): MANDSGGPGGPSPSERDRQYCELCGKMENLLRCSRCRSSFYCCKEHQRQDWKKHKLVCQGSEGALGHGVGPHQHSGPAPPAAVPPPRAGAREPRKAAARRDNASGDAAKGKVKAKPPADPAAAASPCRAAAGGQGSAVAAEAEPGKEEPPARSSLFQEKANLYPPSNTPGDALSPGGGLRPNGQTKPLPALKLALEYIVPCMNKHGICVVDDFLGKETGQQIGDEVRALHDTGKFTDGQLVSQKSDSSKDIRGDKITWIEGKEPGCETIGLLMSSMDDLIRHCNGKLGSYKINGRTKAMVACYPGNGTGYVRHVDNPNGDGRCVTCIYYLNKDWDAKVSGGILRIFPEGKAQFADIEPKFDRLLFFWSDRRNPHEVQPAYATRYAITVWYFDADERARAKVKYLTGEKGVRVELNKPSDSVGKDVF

In order of falling IC50:
1. CCOC(=O)C(C)(C)CNC(=O)c1cc(O)c(C(=O)NC(c2ccccc2)c2ccccc2)cn1 [Example 5, ethyl 3-(5-(benzhydrylcarbamoyl)-4-hydroxypicolinamido)-2,2-dimethylpropanoate]  276 nM
2. CCOC(=O)C1(CNC(=O)c2cc(O)c(C(=O)NC(c3ccc(Cl)cc3)c3ccc(Cl)cc3)cn2)CC1 [Example 5, ethyl 1-((5-((bis(4-chlorophenyl)methyl)carbamoyl)-4-hydroxypicolinamido)methyl) cyclopropanecarboxylate]  184 nM
3. COC(=O)C(C)CNC(=O)c1cc(O)c(C(=O)NC(c2ccccc2)c2ccccc2)cn1 (stereo not shown) [Example 3, methyl 3-(5-(benzhydrylcarbamoyl)-4-hydroxypicolinamido)-2-methylpropanoate]  136 nM
4. CCOC(=O)CCNC(=O)c1cc(O)c(C(=O)NC(c2ccccc2)c2ccccc2)cn1 [Example 2, ethyl 3-(5-(benzhydrylcarbamoyl)-4-hydroxypicolinamido)propanoate]  92.9 nM
5. CCOC(=O)[C@H]1C[C@@H]1NC(=O)c1cc(O)c(C(=O)NC(c2ccccc2)c2ccccc2)cn1 [Example 6, (1S,2S)-ethyl 2-(5-(benzhydrylcarbamoyl)-4-hydroxypicolinamido)cyclopropanecarboxylate]  89.1 nM
6. CCOC(=O)[C@@H]1C[C@H]1NC(=O)c1cc(O)c(C(=O)NC(c2ccccc2)c2ccccc2)cn1 [Example 7, (1R,2R)-ethyl 2-(5-(benzhydrylcarbamoyl)-4-hydroxypicolinamido)cyclopropanecarboxylate]  37.3 nM
7. O=C(NC12CC(C(=O)O)(C1)C2)c1cc(O)c(C(=O)NC(c2ccccc2)c2ccccc2)cn1 [Example 17, 3-(5-(benzhydrylcarbamoyl)-4-hydroxypicolinamido)bicyclo[1.1.1]pentane-1-carboxylic acid]  23.4 nM
8. O=C(N[C@H]1C[C@@H]1C(=O)O)c1cc(O)c(C(=O)NC(c2ccccc2)c2ccccc2)cn1 [Example 15, (1S,2S)-2-(5-(benzhydrylcarbamoyl)-4-hydroxypicolinamido)cyclopropanecarboxylic acid]  6.69 nM
9. O=C(N[C@@H]1C[C@H]1C(=O)O)c1cc(O)c(C(=O)NC(c2ccccc2)c2ccccc2)cn1 [Example 16, (1R,2R)-2-(5-(benzhydrylcarbamoyl)-4-hydroxypicolinamido)cyclopropanecarboxylic acid]  6.55 nM
10. O=C(NCC1(C(=O)O)CC1)c1cc(O)c(C(=O)NC(c2ccccc2)c2ccccc2)cn1 [Example 11, 1-((5-(benzhydrylcarbamoyl)-4-hydroxypicolinamido)methyl)cyclopropanecarboxylic acid]  5.24 nM
11. CC(C)(CNC(=O)c1cc(O)c(C(=O)NC(c2ccccc2)c2ccccc2)cn1)C(=O)O [Example 14, 3-(5-(benzhydrylcarbamoyl)-4-hydroxypicolinamido)-2,2-dimethylpropanoic acid]  3.61 nM
12. CC(CNC(=O)c1cc(O)c(C(=O)NC(c2ccccc2)c2ccccc2)cn1)C(=O)O (stereo not shown) [Example 10, 3-(5-(benzhydrylcarbamoyl)-4-hydroxypicolinamido)-2-methylpropanoic acid]  1.89 nM
13. O=C(N[C@H]1C[C@H](C(=O)O)C1)c1cc(O)c(C(=O)NC(c2ccccc2)c2ccccc2)cn1 [Example 3]  1.64 nM
14. O=C(NCC(O)C(=O)O)c1cc(O)c(C(=O)NC(c2ccccc2)c2ccccc2)cn1 (stereo not shown) [Example 13, 3-(5-(benzhydrylcarbamoyl)-4-hydroxypicolinamido)-2-hydroxypropanoic acid]  1.28 nM
15. O=C(O)CCCNC(=O)c1cc(O)c(C(=O)NC(c2ccccc2)c2ccccc2)cn1 [Example 12, 4-(5-(benzhydrylcarbamoyl)-4-hydroxypicolinamido)butanoic acid]  1.02 nM
16. O=C(O)c1cnn(-c2cc(O)c(C(=O)NC(c3ccccc3)c3ccccc3)cn2)c1 [Example 1, 1-(5-(Benzhydrylcarbamoyl)-4-hydroxypyridin-2-yl)-1H-pyrazole-4-carboxylic acid]  0.875 nM
